Measurements taken from patent publication US20230357261A1, “ARYL HYDROCARBON RECEPTOR LIGANDS AND THEIR ANALOGUES FOR THE PREVENTION AND TREATMENT OF INFLAMMATORY DISORDERS” (The Johns Hopkins University, priority 2020, published 2023).
“Also recorded” adds a separate entry of the source.

Key:
[1] = system: TLR4; assay: TLR4 signaling and Tlr4 expression in newborn mouse ileum in vivo (endotoxemia model, LPS)
Protocol: Endotoxemia was induced in neonatal mouse pups (p11) by administering 5 mg/kg lipopolysaccharides (LPS) via intraperitoneal injection, and ileal samples were harvested 6 hours after LPS treatments. […] I3C and A18 were administered to the pregnant mother daily until the offspring were studied further for experimental NEC or endotoxemia as above. […] The mRNA quantification was performed on the Bio-Rad CFX96 Real-Time System (Bio-Rad) using iTaqTM universal SYBR® Green supermix (Bio-Rad) and the primers listed in Table 1. The relative mRNA expression levels were normalized against the expression of the housekeeping gene ribosomal protein lateral stalk subunit P0 (Rplp0). For microRNA isolation, freshly harvested, snap-frozen ileal tissue was subjected to total RNA isolation using the RNeasy plus universal mini kit (Qiagen) and miRNA was quantified using miScript PCR starter kit (Qiagen) following the manufacturer's protocols. The relative miRNA expression levels were normalized against the expression of housekeeping miRNA miR-191.

[2] = system: AHR; assay: AHR activation in mouse intestine in vivo (Cyp1a1 expression by qRT-PCR); settings: for expression of the AHR response gene Cyp1a1 in the small intestine: maternal diet with I3C throughout pregnancy, 25 mg/kg body weight/day
Protocol: Hits were validated for activation of AHR signaling by oral gavage into neonatal C57/B16 mice (p11), and measuring the expression of the AHR activation reporter Cyp1a1 by qRT-PCR in the intestinal mucosa 24 hours later. The lead compound from these studies is herein labelled “A18”. Additionally, the mice were subjected to hypoxia (5% 02-95% N2) for 10 min in a hypoxia chamber (Billups-Rothenberg) twice daily for 4 days. […] To test the protective effect of breast milk on AHR signaling a NEC, human breast milk (Innovative Research) was supplemented to the formula at the final concentration of 5%. Endotoxemia was induced in neonatal mouse pups (p11) by administering 5 mg/kg lipopolysaccharides (LPS) via intraperitoneal injection, and ileal samples were harvested 6 hours after LPS treatments. […] I3C and A18 were administered to the pregnant mother daily until the offspring were studied further for experimental NEC or endotoxemia as above. […] The mRNA quantification was performed on the Bio-Rad CFX96 Real-Time System (Bio-Rad) using iTaqTM universal SYBR® Green supermix (Bio-Rad) and the primers listed in Table 1. The relative mRNA expression levels were normalized against the expression of the housekeeping gene ribosomal protein lateral stalk subunit P0 (Rplp0). For microRNA isolation, freshly harvested, snap-frozen ileal tissue was subjected to total RNA isolation using the RNeasy plus universal mini kit (Qiagen) and miRNA was quantified using miScript PCR starter kit (Qiagen) following the manufacturer's protocols. The relative miRNA expression levels were normalized against the expression of housekeeping miRNA miR-191.

[3] = system: TLR4; assay: TLR4 signaling and expression in human ileal explant culture (LPS); assay type: cell-based; settings: 200 μM I3C or 20 μM A18; LPS 50 μg/mL for 6 hours
Source text: De-identified human ileal samples were collected via waiver of consent from the Office of Human Subjects Research Review Boards at Johns Hopkins University (IRB00094036), during surgery for NEC or at the time of stoma closure. For RNA isolation and qRT-PCR analysis, fresh samples were snapfrozen in liquid nitrogen immediately. For human explant culture, fresh ileum samples from NEC patients or patient undergoing stoma re-anastomosis were washed with sterile phosphate-buffered saline containing gentamycin (5 μg/mL), minced into 2- to 4-mm diameter pieces, and then cultured in Dulbecco's modified Eagle growth medium supplemented with 10% fetal bovine serum, 4 μg/mL human recombinant insulin and 100 μg/mL Primocin. Human ilea explant cultures were then pre-treated with 200 μM I3C or 20 μM A18 for 15 minutes, and then with 50 μg/mL LPS for 6 hours, then processed for total RNA isolation followed by qRT-PCR.
(§1) Total RNA was isolated using the RNeasy mini kit (Qiagen) and complementary DNA was synthesized from 0.5 μg RNA using QuantiTect Reverse Transcription kit (Qiagen) following the manufacturer's protocols. The mRNA quantification was performed on the Bio-Rad CFX96 Real-Time System (Bio-Rad) using iTaq™ universal SYBR® Green supermix (Bio-Rad) and the primers listed in Table 1. The relative mRNA expression levels were normalized against the expression of the housekeeping gene ribosomal protein lateral stalk subunit P0 (Rplp0). For microRNA isolation, freshly harvested, snap-frozen ileal tissue was subjected to total RNA isolation using the RNeasy plus universal mini kit (Qiagen) and miRNA was quantified using miScript PCR starter kit (Qiagen) following the manufacturer's protocols. The relative miRNA expression levels were normalized against the expression of housekeeping miRNA miR-191.

[4] = system: AHR; assay: AHR activation in IEC-6 enterocytes (Cyp1a1 expression); assay type: cell-based, rat; settings: exposed to amniotic fluid, breast milk and serum harvested from pregnant mice administered I3C vs control diet
Protocol: The intestinal epithelial cells line IEC-6 (ATCC CRL-1592) was stably transduced with lentiviral particles containing Cignal Lenti XRE Reporter (luc) (Qiagen). Cells were treated serially with individual chemicals contained within the Johns Hopkins Drug Library (JHDL), which contains a series of FDA-approved drugs, Chong et al., 2006, (kindly provided by Dr. Jun O. Liu, Johns Hopkins University) at 10 μM for 24 hours, and the luciferase activity was quantified using the SpectraMax M3 (Molecular Devices).
as §1

[5] = system: mouse NEC model; assay: Experimental NEC in newborn mice (Example 1); assay type: in vivo
[6] = pups, maternal I3C during pregnancy

For `OCc1c[nH]c2ccccc12` [I3C, indole-3-carbinol], the “TLR4 signaling (LPS-induced Tnfa) in the intestine” value ([1]; Ahr^−/− mice, I3C) was “did not reduce”, the “Tlr4 expression in the intestinal mucosa” value ([1]; Ahr^−/− mice, I3C) was “did not reduce” and the “induction of the proinflammatory cytokine 116 in the neonatal (p11) mouse intestine in response to LPS” value ([1]; maternal administration of I3C, vs pups from non I3C-treated mothers) was “significantly reduced the induction of the proinflammatory cytokine 116”. For the same molecule, the “Tlr4 expression in the intestinal mucosa / newborn ileum” value ([1]; wild-type mice, fed I3C or A18) was “reduced expression of Tlr4”, the “LPS-induced Tnfa expression (TLR4 signaling) in the intestine” value ([1]; wild-type p11 mice fed I3C) was “reduced LPS-induced Tnfa expression” and the “Cyp1a1 expression in the neonatal intestinal epithelium (ileum)” value ([2]; Ahr^Δlys mice, NEC model, I3C 25 mg/kg body weight/day for 4 days) was “induced the expression Cyp1a1; also recorded: moderate increase”. The “Cyp1a1 expression in the intestinal epithelium” value ([2]; Ahr^−/− newborn mice, fed I3C 25 mg/kg/day or A18 300 mg/kg/day) was “did not induce Cyp1a1”, the “Cyp1a1 expression in the intestinal epithelium” value ([2]; Il22^−/− mice, NEC model, I3C 25 mg/kg body weight/day for 4 days) was “induced the expression of Cyp1a1” and the “expression of the AHR response gene Cyp1a1 in the small intestine” value ([2]; fetus at e17.5) was “induced the expression of the AHR response gene Cyp1a1”. For the same molecule, the “Cyp1a1 expression in suckling pups” value ([2]; p11, I3C administered to the lactating mother) was “induced Cyp1a1 expression”, the “expression of the AHR response gene Cyp1a1 in the small intestine” value ([2]; pregnant mother) was “induced the expression of the AHR response gene Cyp1a1” and the “Cyp1a1 expression in the intestinal epithelium” value ([2]; wild-type newborn (p11) mice, fed I3C 25 mg/kg/day or A18 300 mg/kg/day) was “induced Cyp1a1 expression”. For the same molecule, the “Cyp1a1 expression in the neonatal intestinal epithelium (ileum)” value ([2]; wildtype mice, NEC model, I3C 25 mg/kg body weight/day for 4 days) was “induced the expression Cyp1a1; also recorded: multifold induction”, the “LPS-induced Tnf-a expression in human intestinal explant cultures” value [3] was “reduced LPS-induced Tnf-a expression” and the “Cyp1a1 expression in cultured IEC-6 enterocytes” value [4] was “significantly increased the expression of Cyp1a1”. For the same molecule, the NEC severity ([5]; Ahr^ΔIEC mice, I3C 25 mg/kg/day during NEC induction) was “relatively scant protective effect”, the NEC severity ([5]; Ahr^Δlys mice, I3C 25 mg/kg/day during NEC induction) was “moderate protective effect; also recorded: protection against NEC development” and the NEC severity ([5]; Ahr^−/− mice, oral to pups during NEC induction: I3C 25 mg/kg/day, A18 300 mg/kg/day, or human breast milk 5% in formula) was “no protective effect”. The NEC severity ([5]; Il22^−/− mice, I3C 25 mg/kg/day for 4 days) was “reduced NEC severity”, the “severity of experimental NEC in the pups” value ([5]; oral I3C to the mother during pregnancy, 25 mg/kg body weight/day) was “significantly reduced the severity of experimental NEC” and the “expression of 116 in the intestinal epithelium (NEC)” value [5, 6] was “reduced expression of 116”. For the same molecule, the “histological injury (terminal ileum, NEC)” value [5, 6] was “reduced histological injury”, the “intestinal epithelial apoptosis (TUNEL, NEC)” value [5, 6] was “reduced intestinal epithelial apoptosis” and the NEC severity ([5]; wild-type mice, oral to pups during NEC induction: I3C 25 mg/kg/day, A18 300 mg/kg/day, or human breast milk 5% in formula) was “significantly reduced the severity of NEC; also recorded: protection against NEC development”.
